Measurements taken from PubChem BioAssay (NCI).
Where “and” joins values, the source holds several entries; their conditions need not be identical. Identical values can stand only once.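 Results reflect a 48-hour exposure of cells in 96-well plates to compound at five concentrations. The concentration for 50% growth inhibition is given as GI50. TGI: concentration producing complete growth inhibition.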

Tests used:
Experiment in all cases: NCI-60 cell line screen, 48 h
UACC-62 melanoma = system: UACC-62 melanoma
OVCAR-5 ovarian = system: OVCAR-5 ovarian
UO-31 renal = system: UO-31 renal
MDA-MB-435 = system: MDA-MB-435
T-47D breast = system: T-47D breast
HS 578T breast = system: HS 578T breast
SNB-19 CNS = system: SNB-19 CNS
NCI/ADR-RES ovarian = system: NCI/ADR-RES ovarian
A549 NSCLC = system: A549 NSCLC
MOLT-4 leukemia = system: MOLT-4 leukemia
HCC-2998 colon = system: HCC-2998 colon
UACC-257 melanoma = system: UACC-257 melanoma
CCRF-CEM leukemia = system: CCRF-CEM leukemia
SK-MEL-5 melanoma = system: SK-MEL-5 melanoma
U251 CNS = system: U251 CNS
MALME-3M melanoma = system: MALME-3M melanoma
SR leukemia = system: SR leukemia
IGROV1 ovarian = system: IGROV1 ovarian
HCT-15 colon = system: HCT-15 colon
OVCAR-3 ovarian = system: OVCAR-3 ovarian
CAKI-1 renal = system: CAKI-1 renal
SN12C renal = system: SN12C renal
TK-10 renal = system: TK-10 renal
OVCAR-8 ovarian = system: OVCAR-8 ovarian
A498 renal = system: A498 renal
SF-539 CNS = system: SF-539 CNS
SF-295 CNS = system: SF-295 CNS
NCI-H460 lung = system: NCI-H460 lung
SW-620 colon = system: SW-620 colon
M14 melanoma = system: M14 melanoma
SF-268 CNS = system: SF-268 CNS
COLO 205 colon = system: COLO 205 colon
HCT-116 colon = system: HCT-116 colon
OVCAR-4 ovarian = system: OVCAR-4 ovarian
RPMI-8226 leukemia = system: RPMI-8226 leukemia
BT-549 breast = system: BT-549 breast
HOP-92 NSCLC = system: HOP-92 NSCLC
HL-60(TB) leukemia = system: HL-60(TB) leukemia
MDA-MB-231 breast = system: MDA-MB-231 breast
NCI-H23 lung = system: NCI-H23 lung
PC-3 prostate = system: PC-3 prostate
KM12 colon = system: KM12 colon
SK-OV-3 ovarian = system: SK-OV-3 ovarian
HT29 colon = system: HT29 colon
MCF7 breast = system: MCF7 breast
SK-MEL-28 melanoma = system: SK-MEL-28 melanoma
RXF 393 renal = system: RXF 393 renal
NCI-H522 lung = system: NCI-H522 lung
ACHN renal = system: ACHN renal
K-562 leukemia = system: K-562 leukemia
786-0 renal = system: 786-0 renal
EKVX NSCLC = system: EKVX NSCLC
LOX IMVI melanoma = system: LOX IMVI melanoma
SNB-75 CNS = system: SNB-75 CNS
NCI-H226 lung = system: NCI-H226 lung
DU-145 prostate = system: DU-145 prostate
HOP-62 NSCLC = system: HOP-62 NSCLC

CCc1nc(C(N)=O)c(Nc2ccc(N3CCC(N4CCN(C)CC4)CC3)c(OC)c2)nc1NC1CCOCC1
GI50 (UACC-62 melanoma): 1530 nM and 527 nM and 1560 nM | TGI (UACC-62 melanoma): 16.9 µM and > 10 µM and 16.4 µM | GI50 (OVCAR-5 ovarian): 484 nM and 279 nM and 486 nM | TGI (OVCAR-5 ovarian): 14.5 µM and > 10 µM | GI50 (UO-31 renal): 1010 nM and 282 nM and 1230 nM | TGI (UO-31 renal): 8.61 µM and > 10 µM and 8.63 µM | GI50 (MDA-MB-435): 3.23 µM and 0.511 µM and 3.96 µM | TGI (MDA-MB-435): 20.7 µM and > 6.91 µM and 20.8 µM | GI50 (T-47D breast): 13.2 µM and > 10 µM and 13.4 µM | TGI (T-47D breast): 30 µM and > 10 µM and 32.7 µM | GI50 (HS 578T breast): 1560 nM and 514 nM and 1850 nM | TGI (HS 578T breast): 9.48 µM and > 2.32 µM and 11.3 µM | TGI (SNB-19 CNS): 20.2 µM and > 10 µM and 22.7 µM | GI50 (NCI/ADR-RES ovarian): 4.33 µM and 3.75 µM and 5.19 µM | TGI (NCI/ADR-RES ovarian): 22.2 µM and > 10 µM and 26.8 µM | GI50 (A549 NSCLC): 2350 nM and 379 nM and 2610 nM | TGI (A549 NSCLC): 15.2 µM and > 10 µM and 16.1 µM | GI50 (MOLT-4 leukemia): 3.55 µM and 0.794 µM and 4.06 µM | TGI (MOLT-4 leukemia): 21.5 µM and > 2.7 µM and 25.4 µM | GI50 (HCC-2998 colon): 8.08 µM and 1.4 µM and 8.55 µM | TGI (HCC-2998 colon): 22.2 µM and > 3.14 µM and 23.5 µM | TGI (UACC-257 melanoma): 24.5 µM and > 10 µM and 24.3 µM | GI50 (CCRF-CEM leukemia): 3.76 µM and 0.901 µM and 7.12 µM | TGI (CCRF-CEM leukemia): 30.1 µM and > 10 µM and 44.4 µM | GI50 (SK-MEL-5 melanoma): 12.4 µM and > 10 µM and 13.2 µM | TGI (SK-MEL-5 melanoma): 25.4 µM and > 10 µM and 26.4 µM | GI50 (U251 CNS): 5.9 µM and 1.28 µM and 7.96 µM | TGI (U251 CNS): 19.8 µM and > 3.84 µM and 21.2 µM | GI50 (MALME-3M melanoma): 946 nM and 239 nM and 764 nM | GI50 (SR leukemia): < 13.5 nM and 2.1 nM and 13 nM | GI50 (IGROV1 ovarian): 876 nM and 279 nM and 790 nM | TGI (IGROV1 ovarian): 8.09 µM and > 10 µM and 8.12 µM | GI50 (HCT-15 colon): 1680 nM and 380 nM and 1410 nM | TGI (HCT-15 colon): 15.7 µM and > 10 µM and 16 µM | GI50 (OVCAR-3 ovarian): 8.01 µM and 3.69 µM and 9.27 µM | TGI (OVCAR-3 ovarian): 22.9 µM and > 10 µM | GI50 (CAKI-1 renal): 1240 nM and 236 nM and 1210 nM | TGI (CAKI-1 renal): 12.9 µM and > 10 µM and 13.4 µM | GI50 (SN12C renal): 545 nM and 247 nM and 491 nM | TGI (SN12C renal): 20.2 µM and > 10 µM and 17.5 µM | GI50 (TK-10 renal): 1750 nM and 230 nM and 1350 nM | GI50 (OVCAR-8 ovarian): 10.3 µM and 1.62 µM and 10.1 µM | TGI (OVCAR-8 ovarian): 36.8 µM and > 10 µM and 30.2 µM | GI50 (A498 renal): 960 nM and 165 nM and 931 nM | TGI (A498 renal): 4.41 µM and 0.6 µM and 4.9 µM | GI50 (SF-539 CNS): 5.46 µM and 1.05 µM and 7.87 µM | TGI (SF-539 CNS): 20.3 µM and > 2.27 µM and 22.1 µM | GI50 (SF-295 CNS): 3.59 µM and 1.02 µM and 4.54 µM | TGI (SF-295 CNS): 15.3 µM and > 3.5 µM and 17.3 µM | GI50 (NCI-H460 lung): 1370 nM and 501 nM and 1270 nM | TGI (NCI-H460 lung): 17.4 µM and > 10 µM and 19.5 µM | GI50 (SW-620 colon): 1330 nM and 366 nM and 1290 nM | TGI (SW-620 colon): 13.6 µM and > 10 µM and 14.8 µM | GI50 (M14 melanoma): 1100 nM and 253 nM and 961 nM | TGI (M14 melanoma): 16.4 µM and > 2.57 µM and 17.9 µM | TGI (SF-268 CNS): 22.8 µM and > 2.72 µM and 24.5 µM | GI50 (COLO 205 colon): 1550 nM and 281 nM and 1570 nM | TGI (COLO 205 colon): 9.65 µM and > 1.98 µM and 14.2 µM | GI50 (HCT-116 colon): 1390 nM and 340 nM and 1230 nM | TGI (HCT-116 colon): 14.1 µM and > 10 µM and 14.9 µM | GI50 (OVCAR-4 ovarian): 12.8 µM and > 10 µM and 13.8 µM | TGI (OVCAR-4 ovarian): 27.8 µM and > 10 µM and 32.2 µM | TGI (RPMI-8226 leukemia): 30.8 µM and > 2.71 µM and 36.4 µM | GI50 (BT-549 breast): 2610 nM and 521 nM and 3560 nM | TGI (BT-549 breast): 14.7 µM and > 2.84 µM and 17.3 µM | GI50 (HOP-92 NSCLC): 173 nM and 82.7 nM and 247 nM | TGI (HOP-92 NSCLC): 1620 nM and 640 nM and 1630 nM | GI50 (HL-60(TB) leukemia): 871 nM and 367 nM and 968 nM | TGI (HL-60(TB) leukemia): 11.3 µM and > 10 µM and 14.9 µM | GI50 (MDA-MB-231 breast): 3.38 µM and 0.829 µM and 3.52 µM | TGI (MDA-MB-231 breast): 17.7 µM and > 10 µM and 17.2 µM | GI50 (NCI-H23 lung): 1480 nM and 386 nM and 1200 nM | TGI (NCI-H23 lung): 23.5 µM and > 2.7 µM and 24.7 µM | TGI (PC-3 prostate): 25.7 µM and > 10 µM and 26 µM | GI50 (KM12 colon): 93.3 nM and 33.8 nM and 64.9 nM | TGI (KM12 colon): 12.8 µM and > 10 µM and 12 µM | GI50 (SK-OV-3 ovarian): 1570 nM and 397 nM and 1510 nM | TGI (SK-OV-3 ovarian): 12.3 µM and > 10 µM and 13.8 µM | GI50 (HT29 colon): 569 nM and 251 nM and 467 nM | TGI (HT29 colon): > 43.8 µM | GI50 (MCF7 breast): 672 nM and 258 nM and 493 nM | TGI (MCF7 breast): 17.2 µM and > 10 µM and 17.7 µM | GI50 (SK-MEL-28 melanoma): 5.04 µM and 0.641 µM and 3.51 µM | TGI (SK-MEL-28 melanoma): 21.2 µM and > 2.91 µM and 19.1 µM | GI50 (RXF 393 renal): 1390 nM and 358 nM and 1700 nM | TGI (RXF 393 renal): 4.54 µM and 1.12 µM and 6.27 µM | GI50 (NCI-H522 lung): 4.96 µM and 0.763 µM and 6.27 µM | TGI (NCI-H522 lung): 21.7 µM and > 2.52 µM and 23.9 µM | GI50 (ACHN renal): 2070 nM and 420 nM and 1480 nM | TGI (ACHN renal): 17.1 µM and > 10 µM and 15.4 µM | TGI (K-562 leukemia): 33 µM and > 2.39 µM and 45.4 µM | GI50 (786-0 renal): 2480 nM and 461 nM and 2380 nM | TGI (786-0 renal): 13.8 µM and > 10 µM and 14.1 µM | GI50 (EKVX NSCLC): 830 nM and 375 nM and 727 nM | TGI (EKVX NSCLC): 18.2 µM and > 4.97 µM and 19 µM | GI50 (LOX IMVI melanoma): 2120 nM and 337 nM and 2820 nM | TGI (LOX IMVI melanoma): 17.6 µM and > 2.34 µM and 19.4 µM | GI50 (SNB-75 CNS): 598 nM and 423 nM and 670 nM | TGI (SNB-75 CNS): 5.4 µM and 1.91 µM and 7.74 µM | GI50 (NCI-H226 lung): 5.45 µM and > 10 µM and 5.78 µM | TGI (NCI-H226 lung): 28.8 µM and > 10 µM and 30 µM | GI50 (DU-145 prostate): 904 nM and 359 nM and 719 nM | TGI (DU-145 prostate): 18.5 µM and > 10 µM and 17.3 µM | GI50 (HOP-62 NSCLC): 1260 nM and 238 nM and 1200 nM | TGI (HOP-62 NSCLC): 16.3 µM and > 2.98 µM and 17.6 µM
